Source: patent US20260015311A1, “AMINO LIPID COMPOUND, PREPARATION METHOD THEREFOR, AND USE THEREOF” (SHENZHEN SHENXIN BIOTECHNOLOGY CO., LTD., priority 2022, published 2026)

Experiments:
[1] = system: Fluc mRNA; assay: Activity of lipid nanoparticles of formulation method 2, Fluc mRNA by intramuscular administration; type: in vivo, BALB/c mice
Description: (§1) The formulation method was the same as the formulation method 1, except that the molar ratio of the amino lipid compounds to DSPC, cholesterol and PEG2000-DMG was 50:10:38.5:1.5.
(§2) 9 mice were assigned randomly to each group and injected with the lipid nanoparticles at a dosage of 0.5 mg/kg by three administration routes, i.e., subcutaneous, intramuscular and tail vein injection (three mice for each administration route). After 12 hours, D-luciferin potassium salt (200 μL, 10 mg/mL) was injected into each mouse through the tail vein. After 10 minutes, the total fluorescence intensity of each mouse was observed on a living imaging system (IVIS-200, Xenogen) and taken photographs for record. The expression intensities of Fluc mRNA delivered by representative amino lipid compounds through the three administration routes are shown in Table 2-4. MC3 was used as a control and SM102 was used as a comparative compound.
Preparation of Lipid Nanoparticles: LNPs were Prepared Using the Formulation Method 2 for Intramuscular Administration.
The measurement method was the same as that of Test Example 1.

[2] = system: Fluc mRNA; assay: In vivo delivery of luciferase mRNA (Fluc mRNA) by lipid nanoparticles, living imaging; parameters: species or system BALB/c mice; conditions: after 12 hours, total fluorescence
Description: (§3) The amino lipid compounds of the present disclosure were mixed with DOPE, cholesterol, and PEG2000-DMG in a molar ratio of 45:10:42.5:2.5 and dissolved in absolute ethanol. By using a microinjection pump, the resultant ethanol solution and a sodium acetate solution (50 mM, pH=4.0) were mixed in a ratio of 1:3 in a microfluidic chip to prepare a crude solution of lipid nanoparticles, which were then dialyzed in 1×PBS at a controlled temperature of 4° C. for 6 h using a dialysis box (Fisher, MWCO 20,000), and filtered through a 0.22 μm microporous filter membrane before use.
as §1
The lipid nanoparticles prepared according to the above formulation method 1 or 2 were used in the biological experiments below for evaluating the performances of in vivo delivery of luciferase mRNA (Fluc mRNA). For the lipid nanoparticles obtained in the formulation method 1, the mass ratio of the amino lipid compounds to the luciferase mRNA was about 10:1, and the lipid nanoparticles were administered subcutaneously; and the lipid nanoparticles obtained in the formulation method 2 were administered by tail vein and intramuscular injection.
6-week-old female BALB/c mice weighed about 20 g were selected and fed in a SPF-grade feeding room. Animal tests were conducted strictly according to the guidelines of National Health institutions and the requirements of animal ethics.
as §2

[3] = Stability of lipid nanoparticles at 25° C., DLS particle size and PDI; type: physicochemical; conditions: for particle size change after four weeks of storage: 25° C., week 4 versus week 0; for particle size: preparation day (week 0)
Description: as §3
(§4) Preparation of Lipid Nanoparticles: The Formulation Method 1 was Used to Prepare LNPs for Subcutaneous Administration.
Characterization of lipid nanoparticles: The particle size and PDI of the prepared lipid nanoparticles were measured by Nano-ZSZEN 3600 (Malvern). 40 μL of the LNP solution was taken for particle size measurement with circulation for three times, 30 seconds for each circulation.
(§5) The particle size measurements were carried out on the day of preparation (week 0), and after one week (week 1), two weeks (week 2), and four weeks (week 4) of storage at 25° C., and the expression intensities of Fluc mRNA delivered by subcutaneous administration were determined on the day of preparation (week 0) and after four weeks (week 4).

[4] = system: Fluc mRNA; assay: Stability of lipid nanoparticles at 25° C., subcutaneous expression of Fluc mRNA; type: in vivo, mice; conditions: for Fluc expression change after four weeks: 25° C., week 4 versus week 0
Description: as §3, §2, §4, §5

[5] = intramuscular injection, formulation method 2, 0.5 mg/kg
[6] = subcutaneous administration, formulation method 1, 0.5 mg/kg
[7] = tail vein administration, formulation method 2, 0.5 mg/kg
[8] = week 0, subcutaneous administration
[9] = week 4, storage at 25° C., subcutaneous administration

For CCCCCCCCC(CCCCCC)OC(=O)CCCCCN(CCCCCC(=O)OC(CCCCCC)CCCCCCCC)C1CCCCC1O (stereo not shown) [Comparative compound 4], the “Fluorescence intensity (expression intensity of Fluc mRNA)” value (“Fluorescence intensity” for short) [1] was 1.3E + 05.
With CCCCCCCCCOC(=O)CCCCCCCN(CCCCCCCC(=O)OC(CCCCCCCC)CCCCCCCC)C1CCC(O)C1 (stereo not shown) [Compound 4] the “Fluorescence intensity” value [1] was 6.7E + 06.
For CCCCCCCCCOC(=O)CCCCCCCN(CCCCCCCC(=O)OC(CCCCCCCC)CCCCCCCC)C1CCCC(F)C1 (stereo not shown) [Compound 18], the “Fluorescence intensity” value [2, 5] was 7.8E + 06.
For CCCCCCCCCOC(=O)CCCCCCCN(CCCCCCCC(=O)OC(CCCCCCCC)CCCCCCCC)C1CCCC(O)C1 (stereo not shown) [Compound 6], the “Fluorescence intensity” value [2, 5] was 1.2E + 08, the “Fluorescence intensity” value [2, 6] was 3.7E + 08 and the “Fluorescence intensity” value [2, 7] was 1.7E + 08. For the same compound, the “particle size change after four weeks of storage” value [3] was “did not increase significantly”, the particle size [3] was “about 100 nm” and the Z-Average ([3]; week 0 (day of preparation)) was 110 nm·days. For the same compound, the PDI ([3]; week 1, storage at 25° C.) was 0.05, the Z-Average ([3]; week 1, storage at 25° C.) was 110 nm·days and the PDI ([3]; week 2, storage at 25° C.) was 0.04. For the same compound, the Z-Average ([3]; week 2, storage at 25° C.) was 125 nm·days, the Z-Average ([3]; week 4, storage at 25° C.) was 125 nm·days and the “Fluc expression change after four weeks” value [4] was “did not decrease significantly”. For the same compound, the “Fluc Expression intensities” value [4, 8] was 3.7E+08 and the “Fluc Expression intensities” value [4, 9] was 3.6E+08.
For CCCCCCCCCOC(=O)CCCCCCCN(CCCCCCCC(=O)OC(CCCCCCCC)CCCCCCCC)C1CCCC(C(=O)NCCCC)C1 (stereo not shown) [Compound 21], the “Fluorescence intensity” value [2, 6] was 1.1E + 06.
For CCCCCCCCC(CCCCCC)OC(=O)CCCCCN(CCCCCCOC(=O)C(CCCCCC)CCCCCCCC)C1CCCC(O)C1 (stereo not shown) [Compound 15], the “Fluorescence intensity” value [2, 5] was 1.8E + 07, the “Fluorescence intensity” value [2, 6] was 4.7E + 07 and the “Fluorescence intensity” value [2, 7] was 3.5E + 06.
In the case of CCCCCCCCC(CCCCCC)C(=O)OCCCCCCN(CCCCCCOC(=O)C(CCCCCC)CCCCCCCC)C1CCCC(O)C1 (stereo not shown) [Compound 14], the “Fluorescence intensity” value [2, 5] is reported as 8.2E + 06 and the “Fluorescence intensity” value [2, 7] is reported as 4.1E + 06.
For CCCCCCCCCCCOC(=O)CCCCCN(CCCCCCCC(=O)OC(CCCCCCCC)CCCCCCCC)C1CCC(O)C1 (stereo not shown) [Compound 5], the “Fluorescence intensity” value [2, 6] was 1.4E + 07, the “particle size change after four weeks of storage” value [3] was “did not increase significantly” and the particle size [3] was “about 100 nm”. The Z-Average ([3]; week 0 (day of preparation)) was 105 nm·days, the PDI ([3]; week 1, storage at 25° C.) was 0.05 and the Z-Average ([3]; week 1, storage at 25° C.) was 110 nm·days. The PDI ([3]; week 2, storage at 25° C.) was 0.06, the Z-Average ([3]; week 2, storage at 25° C.) was 110 nm·days and the Z-Average ([3]; week 4, storage at 25° C.) was 115 nm·days. For the same compound, the “Fluc expression change after four weeks” value [4] was “did not decrease significantly”, the “Fluc Expression intensities” value [4, 8] was 1.4E+07 and the “Fluc Expression intensities” value [4, 9] was 1.1E+07.
With CCCCCCCCCOC(=O)CCCCCCCN(CCCCCCCC(=O)OC(CCCCCCCC)CCCCCCCC)C1CCCC1O (stereo not shown) [Comparative compound 1] the “Fluorescence intensity” value [1] was 1.7E + 05.
With CCCCCCCCCCCOC(=O)CCCCCN(CCCCCCCC(=O)OC(CCCCCCCC)CCCCCCCC)C1CCC(O)CC1 (stereo not shown) [Comparative compound 7] the “Fluorescence intensity” value [1] was 4.5E + 06.
